System: rat primary granulosa cells
Test: Effects of CHX and alpha-amanitin on FSH/forskolin-induced expression of cytoskeletal genes in granulosa cells
Type: cell-based
Conditions: for β-tubulin mRNA: with or without FSH
Description: FIG. 8. Effects of CHX and alpha-amanitin treatment on the FSH/forskolin-induced expression of the cytoskeletal genes. Granulosa cells were isolated from the ovaries of 170 estradiol primed 24 day old immature rats. They were cultured in the medium containing FSH (30 ng/ml) or forskolin (10 microM, FSK) in the presence or absence of CHX (10 μg/ml) for 6 hours (A) or 24 hours (B). In addition, the 24 hours cells were also cultured, likewise, in the presence of alpha-amanitin (30 microg/ml, AMA). Total RNA was isolated and analyzed for mRNAs of TM4, Khc, beta-tubulin and inhibin alpha as described in the description of FIG. 7. Values are the meanfold increase over control (no treatment)±SE. Values were pooled from two separate experiments.
As a step to determine the mechanisms of the FSH-responsive mRNA expression, the granulosa cells were treated with FSH in the presence or absence of a translation inhibitor, CHX, and a transcription inhibitor, alpha amanitin.
Eighteen to twenty-one day old Sprague-Dawley female pups with nursing mothers were purchased from Harlan Breeding Company (Indianapolis, Ind.) and housed in a photoperiod of 14 h light/10 h darkness with light on at 0500 h. For in situ hybridization, rats were injected subcuteneoulsy with 15 IU PMSG (Sigma) in 0.1 ml PBS on 22-23 days of age. Depending on the experiments, PMSG 48 hours-primed rats were injected i.p. with 10 IU hCG. Ovaries were frozen on dry ice immediately after excision and stored at −80 C. […] Ovaries were collected in ice-cold serum-free 4F medium consisting of 15 mM HEPES (pH 7.4), 50% DMEM and 50% Ham's F12 with bovine transferrin (5 micro g/ml), human insulin (2 mg/ml), hydrocortisone (40 ng/ml) and antibiotics, and processed as previously described. Cells were washed three times, resuspended in 4F, plated on serum-coated. Six-well plate (1×10^6 cells in 2 ml per well), and incubated at 37 C for 16 hours. FSH (30 ng/ml) or forskolin (10 micro M) was added to the cell cultures. For the inhibition of protein synthesis or transcription, 10 micro g/ml of cycloheximide (CHX) or alpha-amanitin (30 microg/ml) was, respectively, added 1 h before hormone treatment.
RT-PCR was performed essentially as previously described (Ko, et al., Endocrinology 140:5185-5194. Total RNA (1-2 micro g) was reverse-transcribed at 37 C in a 20 micro L reaction volume using random hexamer (500 ng) and MMLV reverse transcriptase (10 units) (New England BioLabs, Boston, Mass.). Complementary DNA (cDNA) samples (2 micro L) were added to a total 25 micro L reaction mix containing the primers (200 ng each), 0.4 mM dNTP mixture, and Taq DNA polymerase (2.5 U) in 1×PCR buffer (10 mM Tris, pH 8.3, 50 mM KCl, 1.5 mM MgCl2, 0.01% gelatin). All PCR amplifications were carried out for 20, 25 or 30 cycles on a MJ Research Minicycler. PCR products were separated by 2% agarose gel electrophoresis, stained with SYBR® Green I (Molecular Probes), and visualized by phosphoimaging technology (FLA-2000; Fuji, Stamford, Conn.). The following primers were used in the present studies: TM4 (5′-gag aac tcc tga ctg aac tgg acg-3′(SEQ ID NO. 1) and 5′-cca tat tcc ctg ctg agc gta g-3′(SEQ ID NO. 2), 282 bp), Khc (5′-aac tga atc gcc tcc aag cag-3′ and 5′-cga act ggc gag aac tgg atg-3′, 195 bp), β-tubulin (5′-cct gct cat cag caa gat tcg-3′(SEQ ID NO. 3) and 5′-gtg gtg agc tta agg gta cgg, (SEQ ID NOI 4) 210 bp), and inhibin alpha subunit (5′-gct ttc cct ctg ttg acc cac-3′ (SEQ ID NO. 5) and 5′-aga tgt tga ggg cag ctc gat-3′, (SEQ ID NO. 6) 255 bp). L-19 (5′-ctg aag gtc aaa ggg aat gtg-3 (SEQ ID NO. 7) and 5′-gga cag agt ctt gat gat ctc, (SEQ ID NO. 8) 194 bp) oligo nucleotide primers were used to amplify ribosomal protein L-19 as an internal control.

[1] = CHX, cells treated with FSH for 24 hours
[2] = CHX, cells treated with FSH for six hours
[3] = cells treated with FSH for 24 hours
[4] = alpha-amanitin 30 microg/ml, 24 hours

C[C@@H]1C[C@@H]([C@H](O)CC2CC(=O)NC(=O)C2)C(=O)[C@@H](C)C1 [CHX, cycloheximide]
β-tubulin mRNA level (24 hours FSH in the presence of CHX): decreased to apparent basal level
β-tubulin mRNA (CHX 10 μg/ml, 6 hours): could not be detected
TM4 mRNA level [1]: slightly enhancing
inhibin alpha mRNA level [1]: substantially suppressing
Khc mRNA level [2]: lowered the Khc mRNA level, though not completely
TM4 mRNA level [2]: increased
inhibin alpha mRNA level [2]: increased
effect on Khc mRNA level [3]: marginal

CC[C@H](C)[C@@H]1NC(=O)CNC(=O)[C@@H]2Cc3c([nH]c4cc(O)ccc34)[S+]([O-])C[C@@H](NC(=O)CNC1=O)C(=O)N[C@@H](CC(N)=O)C(=O)N1C[C@H](O)C[C@H]1C(=O)N[C@@H]([C@@H](C)[C@@H](O)CO)C(=O)N2 (stereo partly drawn) [alpha amanitin, alpha-amanitin]
FSH-induced mRNA expression of all of the cytoskeletal and inhibin alpha genes [4]: blocked
β-tubulin mRNA [4]: blocked both the maintenance and FSH dependent increase
effect on Khc mRNA level [3]: marginal

From US20040214767A1, “Regulation of follicular development and ovulation by cytoskeletal genes and gene products” (priority 2002, published 2004)
